Where a name gives a salt, the structure may show the parent alone.

Data set [1] has as its target T1, delta opioid receptor (Homo sapiens, UniProt P41143). Nature of the data set: GTPγ[35S] binding assay at delta opioid receptor (antagonist vs BW-373U86). To be noted: average Ki; membranes, challenged with BW-373U86 (1 nM). Type of data set: biochemical. More on the design: expressed in transfected cells. On the procedure:
(§1) GTPγ[^35S] Binding Assays at Opioid Receptors
(§2) Membranes were prepared from cells as described (Bass et al, 1996). GTPγ[^35S] binding assays were performed in a 96 well FlashPlate™ format in duplicate using 100 pM GTPγ[^35S] and 5 μg membrane per well in assay buffer composed of 50 mM Tris HCl, pH 7.4, 5 mM MgCl2, 1 mM EDTA, 100 mM NaCl, 30 μM GDP, 0.1% bovine serum albumin and the following protease inhibitors: 100 μg/ml bacitracin, 100 μg/ml benzamidine, 5 μg/ml aprotinin, 5 μg/ml leupeptin. The assay mix was then incubated at 30° C. with increasing concentrations of antagonist (10^−10 M to 10^−5 M) for 10 minutes and challenged with the agonists BW-373U86 (1 nM), dynorphin-A (10 nM), β-endorphin (1 μM) for opioid receptors delta, kappa, and mu, respectively. The assays were performed at 30° C. for one hour. The FlashPlates were then centrifuged at 2000×g for 10 minutes. Stimulation of GTPγ[^35S] binding was then quantified using a Wallac Microbeta and Ki calculations were done using Prism™ by Graphpad. […] Each of the compounds listed below were tested as their hydrochloride salts unless indicated otherwise. Those Example Numbers with an asterisk (*) were tested as their free base.
On the technique in general: GTPγS is a poorly hydrolysed GTP analogue; its binding reports G protein activation.

Data set [2] has as its target T2, kappa opioid receptor (Homo sapiens, UniProt P41145). Nature of the data set: GTPγ[35S] binding assay at kappa opioid receptor (antagonist vs dynorphin-A). Type of data set: biochemical. On the set-up: expressed in transfected cells. As to conditions: average Ki; membranes, challenged with dynorphin-A (10 nM). The procedure: as §1, §2
A short description of data set [3]: Pharmacokinetic experiment, IV in rats. It is filed as in vivo, rat. To be noted: male JVC/CAC rats, 1 mg/kg IV; for half-life / clearance / Vd: rat, plasma; for clearance: average of two rats; for Vd: read-out: volume of distribution. On the procedure: A representative compound of the present invention (Example 1A) and a comparator compound (Example 2A) were individually dosed into two different male JVC/CAC rats at 1 mg/kg in a 10% ethanol and 90% (30% beta-cyclodextrin sulfobutylether) vehicle. Blood was subsequently collected at 0.083, 0.25, 0.5, 1, 2, 4, 6, 8 and 20 hours post IV administration. After spinning the blood samples down to get plasma, the plasma concentrations were determined by LC/MS/MS. The pharmacokinetic (PK) analysis was determined by inputting the resultant time concentration data into a Watson™ Laboratory Information Management System (LIMS).

Data set [4] deals with T3, mu opioid receptor (Homo sapiens, UniProt P35372). Nature of the data set: GTPγ[35S] binding assay at mu opioid receptor (antagonist vs β-endorphin). It is filed as biochemical. More on the design: expressed in transfected cells. As to conditions: average Ki; membranes, challenged with β-endorphin (1 μM). On the procedure:
as §1, §2

For data set [5] the following is noted: literature (Shaw 1991, 1993; Levine 1991); cited from earlier work.
In data set [6] the target is T1, delta opioid receptor. As to conditions: compared with mu and kappa; literature; cited from earlier work.
The target of data set [7] is T2, kappa opioid receptor. As to conditions: literature (Statnick 2003; Zimmerman 1993); cited from earlier work.
Data set [8] deals with T3, mu opioid receptor. As to conditions: literature (Statnick 2003; Zimmerman 1993); cited from earlier work.

T1 sequence (P41143 whole entry): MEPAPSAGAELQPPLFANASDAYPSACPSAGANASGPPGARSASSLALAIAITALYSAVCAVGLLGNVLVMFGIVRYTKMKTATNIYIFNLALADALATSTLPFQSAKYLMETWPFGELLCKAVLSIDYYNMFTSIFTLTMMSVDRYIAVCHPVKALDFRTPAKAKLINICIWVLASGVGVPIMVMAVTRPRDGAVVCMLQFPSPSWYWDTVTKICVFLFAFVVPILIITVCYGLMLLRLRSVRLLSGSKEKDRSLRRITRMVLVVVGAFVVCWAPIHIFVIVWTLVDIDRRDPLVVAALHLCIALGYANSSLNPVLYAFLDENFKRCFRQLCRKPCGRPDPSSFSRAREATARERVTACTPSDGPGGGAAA
T3 sequence (P35372 whole entry): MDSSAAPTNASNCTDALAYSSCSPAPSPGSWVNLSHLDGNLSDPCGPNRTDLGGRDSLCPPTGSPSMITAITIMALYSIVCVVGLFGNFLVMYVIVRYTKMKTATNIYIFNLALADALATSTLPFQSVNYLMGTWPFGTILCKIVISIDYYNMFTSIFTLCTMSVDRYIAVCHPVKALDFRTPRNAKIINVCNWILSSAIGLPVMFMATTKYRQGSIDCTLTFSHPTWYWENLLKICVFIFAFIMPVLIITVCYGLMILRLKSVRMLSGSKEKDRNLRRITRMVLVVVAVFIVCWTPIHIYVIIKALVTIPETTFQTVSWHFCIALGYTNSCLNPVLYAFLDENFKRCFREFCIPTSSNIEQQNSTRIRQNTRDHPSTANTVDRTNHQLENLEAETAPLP
T2 sequence (P41145 whole entry): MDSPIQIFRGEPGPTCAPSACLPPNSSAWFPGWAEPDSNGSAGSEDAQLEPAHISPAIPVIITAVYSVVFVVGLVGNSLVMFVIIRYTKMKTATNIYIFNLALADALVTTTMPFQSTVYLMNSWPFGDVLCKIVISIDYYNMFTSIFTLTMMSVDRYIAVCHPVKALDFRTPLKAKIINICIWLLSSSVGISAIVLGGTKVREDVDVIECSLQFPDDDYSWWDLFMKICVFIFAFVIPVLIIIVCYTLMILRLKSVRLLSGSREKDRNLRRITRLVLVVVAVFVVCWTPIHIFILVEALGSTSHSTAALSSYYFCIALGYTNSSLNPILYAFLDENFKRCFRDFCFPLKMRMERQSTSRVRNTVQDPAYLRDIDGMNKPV

With `CC(C)CCNCc1ccc(Oc2ccc(C(N)=O)c(O)c2)c(F)c1` [Example 1A, 4-(2-fluoro-4-{[(3-methylbutyl)amino]methyl}phenoxy)-2-hydroxybenzamide, hydrochloride salt], the affinity on delta opioid receptor [1] corresponds to a Ki of 0.64 nM. Further, the Ki (usually a measure of affinity in units of concentration, obtained from inhibition or displacement) on kappa opioid receptor [2] came to 0.652 nM. Besides, in data set [3], the half-life (usually the time needed for the level to fall by half in the phase considered) is 2.9 h, the clearance (usually the rate of elimination divided by the concentration) was 18.6 mL/min/kg and the Vd is 2 L/kg. At mu opioid receptor [4], this compound gave an inhibition constant (Ki) of 0.335 nM.

Regarding `CC(C)CCNCc1ccc(Oc2cccc(O)c2)c(F)c1.Cl` [Example 2A, 3-(2-fluoro-4-{[(3-methylbutyl)amino]-methyl}phenoxy)phenol, hydrochloride salt], on delta opioid receptor [1], the affinity, expressed as Ki, was 25.4 nM. Besides, on kappa opioid receptor [2], the Ki came to 47.1 nM. Besides, in data set [3], the “clearance relative to hepatic blood flow” value is “approximately 5 times hepatic blood flow”, the half-life is 0.7 h, the clearance is 361 mL/min/kg and the Vd stood at 10 L/kg. Besides, at mu opioid receptor [4], the affinity corresponds to a Ki of 16.7 nM.

Consider `NC(=O)c1ccc(Oc2ccc(CNCCC3CC3)cc2F)cc1O` [Example 3A, 4-(4-{[(2-cyclopropylethyl)amino]methyl}-2-fluorophenoxy)-2-hydroxybenzamide, hydrochloride salt], for which the Ki at delta opioid receptor [1] amounted to 0.62 nM; at kappa opioid receptor [2], 0.39 nM; at mu opioid receptor [4] it was 0.312 nM.

On to `NC(=O)c1ccc(Oc2ccc(CNC3Cc4ccccc4C3)cc2F)cc1O` [Example 3B], for which the Ki at delta opioid receptor [1] is 0.041 nM; on kappa opioid receptor [2], 0.0348 nM; on mu opioid receptor [4], 0.00412 nM.

Regarding `CC(C)OCCNCc1ccc(Oc2ccc(C(N)=O)c(O)c2)c(F)c1` [Example 3C], the Ki on delta opioid receptor [1] came out at 1.68 nM; at kappa opioid receptor [2], 3.78 nM; on mu opioid receptor [4] it was 1.65 nM.

On to `NC(=O)c1ccc(Oc2ccc(CNCCOc3ccccc3)cc2F)cc1O` [Example 3D], for which the results for the Ki on delta opioid receptor [1], on kappa opioid receptor [2] and at mu opioid receptor [4] were 0.687 nM, 5.35 nM and 0.92 nM, respectively.

`NC(=O)c1ccc(Oc2ccc(CNCC3CCCO3)cc2F)cc1O` (stereo not shown) [Example 3E]: the Ki stood at 3.25 nM at delta opioid receptor [1], 0.47 nM on kappa opioid receptor [2] and 1.17 nM on mu opioid receptor [4].

Consider `NC(=O)c1ccc(Oc2ccc(CNC[C@@H]3CCCO3)cc2F)cc1O` [Example 3F], for which the figures for the Ki at delta opioid receptor [1], on kappa opioid receptor [2] and at mu opioid receptor [4] were 2.23 nM, 0.235 nM and 0.855 nM, respectively.

Take `NC(=O)c1ccc(Oc2ccc(CNC[C@H]3CCCO3)cc2F)cc1O` [Example 3G]: the inhibition constant (Ki) at delta opioid receptor [1] was 10.3 nM; on kappa opioid receptor [2], 1.09 nM; on mu opioid receptor [4] it was 3.91 nM.

On to `NC(=O)c1ccc(Oc2ccc(CNCC3CCOCC3)cc2F)cc1O` [Example 3H], for which the values for the Ki on delta opioid receptor [1], at kappa opioid receptor [2] and at mu opioid receptor [4] were 3.02 nM, 1.56 nM and 4.9 nM, respectively.

Turning to `NC(=O)c1ccc(Oc2ccc(CNCC3(O)CCCCC3)cc2F)cc1O` [Example 3I], the Ki on delta opioid receptor [1] came out at 3.33 nM; on kappa opioid receptor [2], 0.215 nM; at mu opioid receptor [4] it was 0.158 nM.

On to `CC[C@@H](NCc1ccc(Oc2ccc(C(N)=O)c(O)c2)c(F)c1)c1ccccn1` [Example 3J], for which the Ki on delta opioid receptor [1] worked out at 16.6 nM; at kappa opioid receptor [2], 13.8 nM; at mu opioid receptor [4], 26.2 nM.

Take `CC(C)CCNCc1cc(F)c(Oc2ccc(C(N)=O)c(O)c2)c(F)c1` [Example 4A, 4-(2,6-difluoro-4-{[(3-methybutyl)amino]methyl}phenoxy)-2-hydroxybenzamide]: the Ki on delta opioid receptor [1] was 0.465 nM; on kappa opioid receptor [2] it was 0.164 nM; on mu opioid receptor [4], 0.094 nM.

In the case of `NC(=O)c1ccc(Oc2c(F)cc(CNC3CCCCC3)cc2F)cc1O` [Example 4B], the Ki on delta opioid receptor [1] was 0.866 nM; at kappa opioid receptor [2], 0.0731 nM; on mu opioid receptor [4], 0.0772 nM.

On to `NC(=O)c1ccc(Oc2c(F)cc(CNCCC3CC3)cc2F)cc1O` [Example 4C], for which the Ki at delta opioid receptor [1] is 1.1 nM; on kappa opioid receptor [2], 0.244 nM; on mu opioid receptor [4] it was 0.167 nM.

For `NC(=O)c1ccc(Oc2c(F)cc(CNC[C@@H]3CCCO3)cc2F)cc1O` [Example 4D], the Ki on delta opioid receptor [1] is 4.87 nM; on kappa opioid receptor [2], 0.184 nM; at mu opioid receptor [4], 0.346 nM.

Consider `NC(=O)c1ccc(Oc2c(F)cc(CNCCC3CCOCC3)cc2F)cc1O` [Example 4E], for which the Ki on delta opioid receptor [1] turned out to be 0.352 nM; on kappa opioid receptor [2] it was 0.419 nM; on mu opioid receptor [4], 0.0963 nM.

For the compound `NC(=O)c1ccc(Oc2c(F)cc(CNC3Cc4ccccc4C3)cc2F)cc1O` [Example 4F], the values for the Ki at delta opioid receptor [1] and at kappa opioid receptor [2] were 0.0543 nM and 0.0848 nM, respectively.

Turning to `C[C@H]1CN(CC[C@H](O)C2CCCCC2)CC[C@@]1(C)c1cccc(O)c1` [LY255582], in data set [5], the anorectic effects entry is “robust anorectic effects”.

As for `CC1CNCCC1(C)c1cccc(O)c1` (stereo not shown) [LY515300, 3,4-dimethyl-4-(3-hydroxyphenyl)piperidine], the “affinity for the delta-opioid receptor” value on delta opioid receptor [6] is listed as “lower affinity”. In addition, on kappa opioid receptor [7], the “binding affinity for the kappa-opioid receptor subtype” value is listed as “sub-nanomolar”. Moreover, the “binding affinity for the mu-opioid receptor subtype” value at mu opioid receptor [8] is listed as “sub-nanomolar”.

These data come from patent US7618996B2, “Diaryl ether derivatives and uses thereof” (Pfizer Inc., priority 2006, dated 2009).
